For one test, the system named is EGFR. The test is described as follows: Mercator Phosphoarray assay in non-infected A431 cells, EGFR. The format is cell-based, Human. Here is the method:
(§1) Thus, A431 cells were infected overnight in serum-free medium with various doses of Adenovirus-GFP (MOI of about 1, c, about 10, b or about 500, a). As a negative control A431 cells were treated only with serum-free medium (mock control bar “d”). At 20 hrs post infection, the infected and non-infected A431 cells were washed and then stimulated with 32 nM EGF for 30 min (FIG. 8A), 25 nM epinephrine for 1 hr (FIG. 8B), or serum-free medium for 1 hr at ambient room temperature (column e in FIGS. 8A and 8B, cell non infected and untreated). Cells extracts were then prepared according to the recommended protocol and analyzed using Mercator™ phosphoarray assay. […] The letter labeled bars (a-e) represent: a=EFG/−adenovirus MOI 500, b=EFG/adenovirus MOI 10, c=EFG/adenovirus MOI 1, d=EFG-mock, and e=untreated cells. […] The letter labeled bars (a-e) are as above for FIG. 8A.

The test system of another test is FAK. The test is described as follows: Mercator Phosphoarray assay in non-infected A431 cells, FAK. In kind it is cell-based, Human. Here is the method:
as §1

Another test concerns Paxillin. The test is described as follows: Mercator Phosphoarray assay in non-infected A431 cells, Paxillin. In kind it is cell-based, Human. Here is the method:
as §1

For a further test, the system named is A431 cells. Briefly: Marker-induced DMR signal in A431 cells (RWG biosensor). The format is cell-based, Human. Here is the method:
Cell Culture—Human epidermoid carcinoma A431 cells were obtained from American Type Cell Culture. For A431 cell culturing, A431 cells were grown in Dulbecco's modified Eagle's medium (DMEM) supplemented with 10% fetal bovine serum (FBS), 4.5 g/liter glucose, 2 mM glutamine, and antibiotics. about 1-2×10^4 cells at passage 3 to 5 suspended in 50 μl the growth medium were placed in each well. After cell seeding, the cells were cultured at 37° C. under air/5% CO2 until about 95% confluency was reached (about 2 days). Afterwards, the serum medium was replaced with the serum-free DMEM medium, and at the same time adenovirus particles were introduced. The resultant cells were subject to continuous culturing for overnight. […]
The doses of virus (multiplicity of infection (MOI)) used in this experiment were comprised of from 0 to about MOI 6,000. At 20 hrs post infection (PI) the A431 cells were washed with HBSS and real time kinetics of the cell responses were recorded before and after stimulation with 32 nM EGF (targeting EGFR and MAPK pathway and cell adhesion pathway), 25 nM epinephrine (targeting Gs pathway and cell adhesion pathway), 32 nM of bradykinin (targeting Gq and Gs pathway), 25 microM of SFFLR-amide or 25 microM of SLIGKV-amide (both targeting Gq and G12/13 pathways) using the Epic® system and illustrated in FIGS. 5 to 7. […]

For test [1], the system named is adenovirus. The test is described as follows: RWG biosensor DMR assay: modulation of the adenovirus-induced response in HeLa cells. The format is cell-based. Conditions: HeLa cells pretreated 1 h with modulator (10 microM latrunculin A, 10 microM cytochalasin B, 40 microM DIPC), then adenovirus MOI 6,000; assay time about 1 hour. From the text:
Reagents—Latrunculin A and cytochalasin B were purchased from Sigma Chemical Co. (St. Louis, Mo.). Cell permeable dynamin inhibitor peptide control (DIPC) was obtained from Tocris Chemical Co. (St. Louis, Mo.). Adenoviral particles (Ad-CMV-eGFP) were purchased from Vector Biolabs (Philadelphia, Pa.). Cell-culture-ready Corning® Epic™ 96well biosensor microplates were obtained from Corning Inc (Corning, N.Y.). HeLa cell line was obtained from Americal Type Cell Culture.
Cell Culture—HeLa cells were grown in Earle minimum Essential medium (EMEM) supplemented with 10% fetal bovine serum (FBS), 4.5 g/liter glucose, 2 mM glutamine, and antibiotics. ˜10^4 HeLa cells suspended in 200 μl the appropriate medium containing 10% FBS were placed in each well of a 96well biosensor microplate, and were cultured at 37° C. under air/5% CO2 until about 95% confluency was reached.
Optical biosensor measurements—Corning® Epic® angular interrogation system with transverse magnetic or p-polarized TM0 mode (as described in, for example, U.S. Patent Publication No. US-2004-0263841, U.S. patent application Ser. No. 11/019,439, filed Dec. 21, 2004, and U.S. Patent Publication No. US-2005-0236554.) was used. […] Afterwards, the sensor microplate containing cells was placed into the optical system, and the cell responses were recorded before and after addition of a solution. […]

Test [2] concerns adenovirus. Particulars: cited from earlier work.
The test system of the next test is Akt. Conditions: 25 nM epinephrine for 1 hr vs untreated cells. As for the experimental part:
as §1

[3] abbreviates: 32 nM EGF for 30 min vs untreated cells.
The mark [4] stands for this setting: 25 nM epinephrine for 1 hr vs untreated cells.

These results are taken from patent US20100323902A1, “Live-cell signals of pathogen intrusion and methods thereof” (priority 2007, published 2010).

Where two headings read alike, the source gives them in different places.

As for “EGF: natural ligand of epidermal growth factor receptor (NSDSECPLSHDGYCLHDGVCMYIEALDKYACNCVVGYIGERCQYRDLKWWELR; Epidermal growth factor; UniProt P01133 971-1023, looked up)”, the “phosphorylation level of EGFR” value with EGFR (setting [3]) is recorded as “increased significantly”. Also, the “phosphorylation level of FAK” value in the test with FAK (setting [3]) is “increased significantly”. In addition, in the test on Paxillin (setting [3]), the “phosphorylation level of paxillin” value is listed as “only mildly increased”. Further, the “DMR signal upon stimulation” value with A431 cells (A431 cells, quiescent for EGF, bradykinin, ATP and thrombin) was “DMR signal with three distinct and sequential phases”.
For the compound `C=C1[C@@H](C)[C@H]2[C@H](Cc3ccccc3)NC(=O)[C@]23OC(=O)/C=C/[C@H](O)CCC[C@@H](C)C/C=C/[C@H]3[C@@H]1O` [cytochalasin B], the “adenovirus-induced P-DMR signal” value with adenovirus [1] is reported as “clearly inhibited the P-DMR signal”. For the same compound, the “trafficking of adenovirus in cells” value in the test with adenovirus [2] is on record as “block the trafficking of adenovirus”.
Regarding `CNC[C@H](O)c1ccc(O)c(O)c1` [epinephrine, Epinephrine], in the test on EGFR (setting [4]), the “phosphorylation level of EGFR” value is given as “do not seem to be altered”. Further, in the test on FAK (setting [4]), the “phosphorylation level of FAK” value is on record as “do not seem to be altered”. In addition, the “phosphorylation level of paxillin” value in the test with Paxillin (setting [4]) is reported as “decreases”. Also, the “phosphorylation level of Akt” value with Akt was “do not seem to be altered”. Besides, the “DMR signal upon stimulation” value with A431 cells is “dose-dependent DMR signal”.
As for `CC[C@]1(O)C[C@@H]2CN(CCc3c([nH]c4ccccc34)[C@@](C(=O)OC)(c3cc4c(cc3OC)N(C)[C@H]3[C@@](O)(C(=O)OC)[C@H](OC(C)=O)[C@]5(CC)C=CCN6CC[C@]43[C@@H]65)C2)C1` [vinblastin], the “trafficking of adenovirus in cells” value with adenovirus [2] is recorded as “block the trafficking of adenovirus”.
Regarding `C/C1=C/C(=O)O[C@@H]2C[C@@H](CC[C@H](C)/C=C\C=C\CC1)O[C@@](O)([C@@H]1CSC(=O)N1)C2` [latrunculin A, Latrunculin A], the “adenovirus-induced P-DMR signal” value in the test on adenovirus [1] is “clearly inhibited the P-DMR signal”.
